In patent publication US20180243190A1, “ACTIVATORS OF NRF2-DEPENDENT PHOTOPROTECTION AND RELATED USES THEREOF” (THE ARIZONA BOARD OF REGENTS ON BEHALF OF THE UNIVERSITY OF …, priority 2015, published 2018):

How the values were obtained:
NRF2 = assay: Immunoblot analysis of NRF2 and NRF2 targets in HEKs; type: cell-based, human; settings: ≤20 μM, 24 h, exposure time ≤24 h at 20 μM
Protocol: Experiments were performed according to previously published procedures. Cells were harvested in sample buffer (50 mM Tris-HCl [pH 6.8], 2% sodium dodecyl sulfate (SDS), 10% glycerol, 100 mM dithiothreitol (DTT), and 0.1% bromophenol blue), boiled and sonicated. Total cell lysates were resolved by SDS-PAGE and subjected to immunoblot analyses with the indicated antibodies. For the ubiquitination assay, cells were cotransfected with expression vectors for NRF2 and HA-tagged ubiquitin (HA-Ub). Cells were left untreated or treated with either 5 μM sulforaphane (SF) or 40 μM bixin along with 10 μM MG132 for 4 h. Cells were harvested in buffer containing 2% SDS, 150 mM NaCl, 10 mM Tris-HCl (pH 8.0), and 1 mM DTT and boiled immediately. For immunoprecipitation, 1 μg of NRF2 antibody was incubated with the cell lysates at 4° C. overnight with protein A agarose beads (Invitrogen). Immunoprecipitated complexes were washed four times with RIPA buffer and eluted in sample buffer by boiling for 5 min. Samples were resolved by SDS-PAGE and immunoblotted with HA antibody. To measure the half-life of NRF2, HaCaT cells were either left untreated or treated with 5 μM bixin for 4 h, then 50 μM cycloheximide was added to block protein synthesis. […] The relative intensity of the bands was quantified using the ChemiDoc CRS gel documentation system and Quantity One software (BioRad).

HaCaT keratinocytes = assay: GSH-Glo glutathione assay; type: cell-based, human; settings: bixin 0-40 μM, 24 h
Protocol: Total intracellular glutathione in cultured cells was analyzed using the luminescent GSH-Glo glutathione assay (Promega). Cells were harvested and then counted using a Z2 Coulter counter, and GSH was determined per 10,000 viable cells. Data represent relative levels of glutathione normalized for cell number (treated versus solvent controls).

cutaneous NRF2 = assay: Cutaneous NRF2 activation after systemic administration (immunoblot, IHC, RT-PCR of skin); type: in vivo, SKH-1 mice
Description: To explore the potential systemic photoprotective activity of bixin in a murine skin sunburn model, the feasibility of upregulating cutaneous NRF2 activity by systemic administration was first examined. It has been reported earlier that efficient cutaneous accumulation of dietary carotenoids requires prolonged nutritional supplementation over weeks and that pharmacokinetic parameters of cutaneous delivery of dietary carotinoids differ between humans and mice. Therefore, in order to circumvent the more complex pharmacokinetics associated with dietary supplementation, an intraperitoneal (i.p.) route for bixin systemic administration followed by examination of cutaneous NRF2 status was chosen. After i.p. injection of bixin (200 mg/kg) performed in Nrf2^+/+ and Nrf2^−/− mice, plasma was collected at 0, 1, 2, 4, 8, 16, 24, 48 and 72 h after injection followed by HPLC-photodiode array detection (FIG. 4A-C). […] Next, efficacy of various bixin treatment regimens (differing with regard to total dose and time after injection) for maximum activation of the NRF2 pathway in murine skin was determined (FIG. 4D).
Next, the feasibility of bixin-induced cutaneous protection was studied in a solar UV photodamage model. Nrf2^+/+ and Nrf2^−/− mice were i.p. injected with either corn oil (carrier control) or bixin (200 mg/kg) 48 h before solar UV exposure (240 mJ/cm^2 UVB; 4.4 J/cm^2 UVA). 24 h after UV exposure back skin tissue was then collected followed by immunohistochemical (IHC) analysis. […] Moreover, UV exposure alone activated the NRF2 response in murine skin, effects not detectable in Nrf2^−/− mice (FIG. 5).
Total RNA was extracted from HaCaT cells and mouse skin tissues using TRIzol (Invitrogen). Equal amounts of mRNA were used to generate cDNA using the M-MLV Reverse Transcriptase synthesis kit according to the manufacturer's instructions (Promega). RT-PCR and primer sequences of NRF2, KEAP1, GCLM, AKR1C1 and GAPDH were described previously to evaluate mRNA expression using the LightCycler 480 system (Roche). Quantification of cDNA amount for mouse Nrf2, Keap1, Gclm, and Akr1c1 in each skin tissue sample was performed using the KAPA SYBR FAST qPCR Kit (Kapa Biosystems).
Nrf2^+/+ and Nrf2^−/− SKH-I mice were obtained by breeding Nrf2 heterozygous mice generated by back-crossing Nrf2^−/− C57BL/6 mice onto the SKH-1 hairless mouse genetic background for at least six generations (JAX® Mice, The Jackson Laboratory). All animals received water and food ad libitum and were handled according to the Guide for the Care and Use of Laboratory Animals; the protocols were approved by the University of Arizona Institutional Animal Care and Use Committee. Eight-week-old Nrf2^+/+ and Nrf2^−/− mice were randomly allocated into four groups (n=6): (i) control (corn oil); (ii) bixin (200 mg/kg, dissolved in corn oil); (iii) UV; (iv) bixin+UV. Bixin was administered through intraperitoneal (i.p.) injection 48 h before UV exposure.
24 h after UV exposure, the mice were euthanized and back skin was collected and divided into two parts: one part was frozen in liquid nitrogen for total RNA extraction and protein analysis; the other part was fixed in 10% buffered formalin and embedded in paraffin for histological and immunohistochemical analyses. Tissue sections (4 μm) were baked and deparaffinized. Hematoxylin and eosin (H&E) staining was performed for pathological examination. […]

Compound: COC(=O)/C=C/C(C)=C\C=C\C(C)=C\C=C\C=C(C)\C=C\C=C(C)\C=C\C(=O)O [bixin]
- protein levels of NRF2 and NRF2 targets (NQO1, AKR1C2, HO-1, TrxR, GCLM, SRXN1, FTH1) (NRF2): increased protein levels
- increase of total cellular glutathione (HaCaT keratinocytes): ~50%
- skin mRNA levels of Nrf2 (cutaneous NRF2; 200 mg/kg i.p.): did not increase
- skin protein or mRNA levels of Keap1 (cutaneous NRF2; 200 mg/kg i.p.): no effects
- upregulation of cutaneous protein levels of NRF2 and its targets (GCLM and AKR1C1), comparison of regimens (cutaneous NRF2; 200 mg/kg, 72 h after injection, Nrf2+/+ mice): most effective
- cutaneous NRF2 pathway (NRF2, GCLM, AKR1C1 protein and mRNA) (cutaneous NRF2; Nrf2+/+ mice, 200 mg/kg i.p.): dramatically induced
- activation of NRF2 pathway related activity within skin cells (cutaneous NRF2; dosage amounts less than 10 mg/kg): insufficient
